Tests used:
Ovcar443 = assay: Cell viability, Ovcar443 ovary cancer cells; assay type: cell-based
H2087 = assay: Cell viability, H2087 lung cancer cells; assay type: cell-based, human

## O=Cc1cn(Cc2ccc(Cl)cc2)c2ccccc12 [Oncrasin K001, 1H-Indole-3-carboxaldehyde, 1-[(4-chlorophenyl)methyl]-(9CI)]
Ovcar443
  IC50 (−LogM): 4.5 −LogM
H2087; H2087, Lung
  IC50 (−LogM): >4.5 −LogM
H2087; mutant N-Ras
  effect on H2087 cells: minimal effect

Reference: patent US8883841B2, “Oncogenic ras-specific cytotoxic compound and methods of use thereof” (The Board of Regents of the University of Texas System, priority 2005, dated 2014)
